Assay results from publication PMC4774972, “Activity and Predicted Nephrotoxicity of Synthetic Antibiotics Based on Polymyxin B” (Journal of Medicinal Chemistry, 2016).
Bridge positions count the residues as written; N and C are the ends. Square brackets hold non-standard residues; d marks the D form. Peptide text beside a SMILES is read from it. * marks the point of attachment. Benzoyl(4-OPh) = O=C(c1ccc(Oc2ccccc2)cc1)*; dDab = NCC[C@@H](N)C(=O)O; Octanoyl = CCCCCCCC(=O)*; Dab = NCC[C@H](N)C(=O)O

How the values were obtained:
HepG2 = details: CC50 HepG2 (µM)
[1] = tested on: K. pneumoniae CI Koprana 100650661:1, PmxR; test: microbe, parasite or virus in culture; type: cell-based, Klebsiella pneumoniae; details: carbapenem & polymyxin resistant clinical isolate; MHB, 5 × 10^5 CFU/mL, 18 h at 37 °C
Experimental: (§1) Bacteria were either obtained from American Type Culture Collection (ATCC; Manassas, VA, USA) or independent academic clinical isolate collections, as listed in Table S2. Bacteria were cultured in nutrient broth (NB; Bacto Laboratories, catalog no. 234000) or Muller Hinton broth (MHB; Bacto Laboratories, catalog no. 211443) at 37 °C overnight with shaking (∼180 rpm). A sample of each culture was then diluted 50-fold in fresh MHB and incubated at 37 °C for 1.5–3 h with shaking (∼180 rpm). Compound stock solutions were prepared as 0.64 or 2.56 mg/mL in water. The compounds, at twice the final desired concentration, were serially diluted 2-fold across the wells of 96-well plates (Polystyrene, Corning, catalogue No. 3370). Mid log phase bacterial cultures (after 1.5–3 h incubation) were diluted to a final concentration of 5 × 10^5 colony forming units (CFU)/mL, and 50 μL was added to each well giving a final compound concentration range of 32 μg/mL to 0.015 μg/mL (128–0.06 μg/mL for colistin and polymyxin B against the polymyxin resistant clinical isolates). MICs were determined visually after 18 h of incubation at 37 °C, with the MIC defined as the lowest compound concentration at which no bacterial growth was visible.
(§2) Table S2. Bacterial strains used for Minimum Inhibitory Concentration (MIC) […]
(§3) Organism Strain Strain description Strain Source
(§4) Escherichia coli ATCC 25922 FDA strain Seattle 1946 ATCC
(§5) Klebsiella pneumoniae ATCC 13883 Control strain ATCC
(§6) Klebsiella pneumoniae ATCC 700603 Multi-drug resistant ATCC
(§7) Klebsiella pneumoniae BAA-2146 Metallo-beta-lactamase- ATCC
(§8) Acinetobacter baumannii ATCC 19606 Type strain ATCC
(§9) Pseudomonas aeruginosa ATCC 27853 Type strain ATCC
(§10) Pseudomonas aeruginosa FADDI-PA070 Clinical isolate, Nation and Li labs, polymyxin resistant Monash University
(§11) Clinical isolate, Wang Hengzhuang, Pseudomonas aeruginosa PA9704 polymyxin resistant University Hospital of […]
(§12) Ptyela Clinical isolate, Ilias Karaiskos and Acinetobacter baumannii Carbapenem & Helen Giamarellou
(§13) Clinical isolate, Medicine, Hygeia
(§14) Klebsiella pneumoniae Koprana Carbapenem, & General Hospital, […]
(§15) Clinical isolate, (Instituto Dante […]
(§16) polymyxin resistant Cardiologia, São […]

[2] = tested on: K. pneumoniae CI 138-16357-20362, PmxR; test: microbe, parasite or virus in culture; type: cell-based, Klebsiella pneumoniae
Experimental: as §1, §2, §3, §4, §5, §6, §7, §8, §9, §10, §11, §12, §13, §14, §15, §16

[3] = tested on: P. aeruginosa FADDI-PA070, PmxR; details: MIC P. aeruginosa FADDI-PA070, PmxR (µg/mL)
[4] = tested on: A. baumannii CI Ptyela 100734512:2, PmxR; details: MIC A. baumannii CI Ptyela 100734512:2, PmxR (µg/mL)
[5] = tested on: S. aureus ATCC 25923, MSSA; details: MIC S. aureus ATCC 25923, MSSA (µg/mL)
[6] = tested on: P. aeruginosa PA9704, PmxR; details: MIC P. aeruginosa PA9704, PmxR (µg/mL)
[7] = tested on: K. pneumoniae CI Koprana 100650661:1, PmxR; details: MIC K. pneumoniae CI Koprana 100650661:1, PmxR (µg/mL)
[8] = tested on: K. pneumoniae CI 138-16357-20362, PmxR; details: MIC K. pneumoniae CI 138-16357-20362, PmxR (µg/mL)
A. baumannii ATCC 19606 = details: MIC A. baumannii ATCC 19606 (µg/mL)
[9] = tested on: primary human renal proximal tubule epithelial (hPT) cells; test: Nephrotoxicity assay, LDH release; type: cell-based
Text: (§17) Primary human renal proximal tubule epithelial (hPT) cells were isolated and used for in vitro prediction of drug-induced nephrotoxicity[63],[64],[69] by measuring the release of metabolism enzymes, LDH and GGT, as previously described.[70]

[10] = tested on: primary human renal proximal tubule epithelial (hPT) cells; test: Nephrotoxicity assay, GGT release; type: cell-based
Text: as §17

HepG2 cells = test: Cytotoxicity assay (resazurin assay); type: cell-based, human; details: 4000 cells/well, 24 h incubation with compound, fluorescence 560/590
Experimental: Cytotoxicity to HEK293 and HepG2 cells was determined using the resazurin assay.[67],[68] […] Compounds were then added into each well. After 24 h incubation, 5 μM resazurin was added per well and incubated at 37 °C for 2 h. Fluorescence intensity was then read using a Polarstar Omega with excitation/emission 560/590. The data were then analyzed using GraphPad Prism 6 software. CC50 values were determined using GraphPad Prism 6 software (Inc. La Jolla, CA).

[11] = tested on: A. baumannii CI Ptyela 100734512:2, PmxR; test: microbe, parasite or virus in culture; type: cell-based, Acinetobacter baumannii; details: carbapenem & polymyxin resistant clinical isolate; MHB, 5 × 10^5 CFU/mL, 18 h at 37 °C
Experimental: as §1, §2, §3, §4, §5, §6, §7, §8, §9, §10, §11, §12, §13, §14, §15, §16

[12] = tested on: S. aureus ATCC 25923, MSSA; test: microbe, parasite or virus in culture; type: cell-based, Staphylococcus aureus; details: ATCC 25923, 18 h
Experimental: as §1, §2, §3, §4, §5, §6, §7, §8, §9, §10, §11, §12, §13, §14, §15, §16

K. pneumoniae ATCC 13883 = details: MIC K. pneumoniae ATCC 13883 (µg/mL)
[13] = carbapenem & polymyxin resistant clinical isolate, MHB, 5 × 10^5 CFU/mL, 18 h at 37 °C
[14] = at 100 μg/mL in the primary kidney cells

Row | Compound | CC50 (HepG2) | MIC K. pneumoniae CI Koprana 100650661:1, PmxR [1] | MIC K. pneumoniae CI 138-16357-20362, PmxR [2, 13] | MIC [3] | MIC [4] | MIC [5] | MIC [6] | MIC [7] | MIC [8] | MIC (A. baumannii ATCC 19606) | release of LDH [9, 14] | LDH release CC50 ([9]; primary human kidney cells) | MIC K. pneumoniae CI 138-16357-20362, PmxR ([2]; CI 138-16357-20362, PmxR, 18 h) | release of GGT [10, 14] | GGT release CC50 ([10]; primary human kidney cells) | HepG2 - CC50 (HepG2 cells) | MIC A. baumannii CI Ptyela 100734512:2, PmxR [11] | MIC S. aureus ATCC 25923, MSSA [12] | MIC (K. pneumoniae ATCC 13883)
1 | CCCCCCCC(=O)NCC(=O)N[C@@H](CCN)C(=O)N[C@H](C(=O)N[C@H]1CCNC(=O)[C@H]([C@@H](C)O)NC(=O)[C@H](CCN)NC(=O)[C@H](CCN)NC(=O)[C@H](CC(C)C)NC(=O)[C@@H](Cc2ccccc2)NC(=O)[C@H](CCN)NC1=O)[C@@H](C)O [Compound 41] (Octanoyl-G[Dab]T[Dab][Dab][dF]L[Dab][Dab]T; lactam 4-C) | > 300 µM | >32 mg/L | >32 mg/L | > 32 mg/L | > 32 mg/L | > 32 mg/L | > 32 mg/L | > 32 mg/L | > 32 mg/L | > 32 mg/L | – | – | – | – | – | – | – | – | –
2 | CC(C)C[C@@H]1NC(=O)[C@@H](Cc2ccccc2)NC(=O)[C@H](CCN)NC(=O)[C@@H](NC(=O)[C@H](CCN)NC(=O)[C@@H](NC(=O)[C@H](CCN)NC(=O)c2ccc(Oc3ccccc3)cc2)[C@@H](C)O)CCNC(=O)[C@H]([C@@H](C)O)NC(=O)[C@H](CCN)NC(=O)[C@H](CCN)NC1=O [Compound 14] ({Benzoyl(4-OPh)}-[Dab]T[Dab][Dab][Dab][dF]L[Dab][Dab]T; lactam 4-C) | 287 µM | >32 mg/L | – | – | – | > 32 mg/L | – | > 32 mg/L | > 32 mg/L | – | almost no release | >128 mg/L | >32 mg/L | almost no release | >128 mg/L | – | – | – | –
3 | CCCCCCCC(=O)N[C@@H](CCN)C(=O)N[C@H](C(=O)N[C@H](CCN)C(=O)N[C@H]1CCNC(=O)[C@H]([C@@H](C)O)NC(=O)[C@H](CCN)NC(=O)[C@H](CCN)NC(=O)[C@H](CC(C)C)NC(=O)[C@@H](Cc2ccccc2)NC(=O)[C@H](CCN)NC1=O)[C@@H](C)O [Compound 36] (Octanoyl-[Dab]T[dDab][Dab][Dab][dF]L[Dab][Dab]T; lactam 4-C) | > 300 µM | >32 mg/L | >32 mg/L | > 32 mg/L | > 32 mg/L | > 32 mg/L | – | > 32 mg/L | > 32 mg/L | – | – | – | – | – | – | >300 µM | >32 mg/L | >32 mg/L | –
4 | CCCCCCCC(=O)N[C@@H](CCN)C(=O)N[C@H](C(=O)N[C@@H](CCN)C(=O)N[C@H]1CCNC(=O)[C@H]([C@@H](C)O)NC(=O)[C@H](CCN)NC(=O)[C@H](CCN)NC(=O)[C@H](CC(C)C)NC(=O)[C@@H](Cc2ccccc2)NC(=O)[C@H](CCCNC(=N)N)NC1=O)[C@@H](C)O [Compound 35] (Octanoyl-[Dab]T[Dab][Dab]R[dF]L[Dab][Dab]T; lactam 4-C) | > 300 µM | >32 mg/L | >32 mg/L | > 32 mg/L | > 32 mg/L | > 32 mg/L | > 32 mg/L | > 32 mg/L | > 32 mg/L | > 32 mg/L | – | – | – | – | – | – | – | – | > 32 mg/L
